Test results from patent US20100111965A1, “COMBINATION THERAPY” (FUSION ANTIBODIES LIMITED, priority 2006, published 2010).

Tests used:
RKO +/+ [1] = assay: Semi quantitative RT-PCR of AREG RNA in RKO cells after chemotherapy; assay type: cell-based, human; conditions: 48 h after treatment, 7.5 μM
Procedure: FIG. 1A illustrates analysis of AREG and beta actin RNA expression in RKO +/+ with/without either a 48 hour CPT11 treatment or 5-Fu treatment. RNA levels were analyzed following 35 cycle of PCR to determine relative differences in expression between treated and untreated samples;
(§1) Cells in a log phase of growth were seeded into T75 flask at ˜20% confluence and incubated overnight to allow adherence to the plate. […] Chemotherapy was substituted with saline in control flasks. After different time exposure to chemotherapy the cells were harvested, washed 3 times in PBS and total RNA was isolated using the RNA TAT-60 reagent according to the manufacturer instructions.
(§2) Reverse transcription was performed with 2.5 μg of RNA using a High Capacity cDNA Archive kit (Applied Biosystem) according to the instruction of the manufacturer.
(§3) Semi quantitative RT-PCR was performed using a PTC 225 Gradient Cycler (MJ Research Incorporated. The PCR mixture, in a final volume of 25 μL, contains 12.5 μL of 2× Biomix (Bioline, UK), 2 μL of primers (10 μmol/L), 1 μL of cDNA and 9.5 μL of dH2O). PCR conditions were initial denaturation step of 95 C for 10 minutes, followed by 35 cycles of 95° C. for 30 sec for denaturation; as annealing step 55° C. for 30 sec; and extension at 72° C. for 90 sec, with a final extension of 72° C. for 10 minutes. […]

HCT116 = assay: RT-PCR of AREG RNA in HCT116 cells after chemotherapy; assay type: cell-based, human; conditions: IC50 dose, 48 hours
Procedure: FIG. 1B illustrates analysis of AREG and beta actin RNA expression in HCT116 +/+ with/without a 48 hour CPT11 treatment. RNA levels were analyzed following 35 cycles of PCR to determine relative differences in expression between treated and untreated samples;
(§4) FIG. 6 illustrates AREG upregulation following chemotherapeutic challenge in A) HT29, B) HCT116 and C) MDA-MB231 cells. Cells were treated with/without chemotherapy for 48 hours. RT-PCR was performed with 1 μg of total RNA using primer pairs specific for the human AREG gene or GAPDH. The PCR products were separated on 1.5% agarose gel electrophoresis and visualized by ethidium bromide staining.
as §1, with “instructions. […]” for “instructions.”
Semi quantitative RT-PCR was performed using a PTC 225 Gradient Cycler (MJ Research Incorporated. The PCR mixture, in a final volume of 25 μL, contains 12.5 μL of 2× Biomix (Bioline, UK), 2 μL of primers (10 μmol/L), 1 μL of cDNA and 9.5 μL of dH2O). […]

H460 lung cancer cells = assay: RT-PCR of AREG RNA in H460 lung cancer cells after chemotherapy; assay type: cell-based; conditions: 48 hour treatment
Procedure: FIG. 5 illustrates analysis of AREG and beta actin RNA expression in H460 lung cancer cells with/without either a 48 hour CPT11 treatment or 5-Fu treatment. RNA levels were analyzed following 35 cycle of PCR to determine relative differences in expression between treated and untreated samples.
as §1, §2, §3

[2] = system: HT29 colorectal cancer cells; assay: RT-PCR of AREG mRNA in HT29 cells after chemotherapy; assay type: cell-based, human; conditions: IC50 dose, 48 hours
Procedure: as §4
For Example 2, Total RNA was isolated from cells following the RNA STAT-60 manufacturer's protocol (Biogenesis, Poole, U.K.). RT-PCR was performed with 1 μg of total cell RNA using a Promega ImProm-II™ Reverse Transcription System (Promega, Southhampton, UK). PCR was performed using primer pairs specific for human AREG (Forward 5′-[…]-3′(SEQ ID No:19), Reverse 5′-[…]-3′ (SEQ ID No:20)), human HB-EGF (Forward 5′-[…]-3′(SEQ ID No:21), Reverse 5′-[…]-3′(SEQ ID No:22)), human GAPDH as a control (Forward 5′[…]-3′(SEQ ID No:23), Reverse 5′ […]-3′(SEQ ID NO:24)) and human Beta-actin as a control (Forward 5′-[…]-3′(SEQ ID No:25), Reverse 5′-[…]-3′(SEQ ID No:26)).
The PCR products were separated on 1.5% agarose gel and visualized by ethidium bromide staining.

RKO +/+ [3] = assay: Western blot of AREG protein in RKO lysates after chemotherapy; assay type: cell-based, human; conditions: RKO p53 wild type lysates; 48 hour treatment
Procedure: FIG. 2 illustrates western blot analysis of AREG and gamma tubulin protein expression in HCT116 +/+ and RKO +/+ with/without a 48 hour CPT11 or 5-Fu treatment; HCT 116, RKO, HT 29 and H630 are human colorectal carcinoma cell lines. After different time exposure to chemotherapy the cells were harvested, and washed in 1×PBS. The cell pellet was then lysed in a suitable amount of 1×RIPA lysis buffer (150 mM NaCl, 10 mM Tris at pH 7.2, 0.1% SDS, 1.0% triton X-100 and 5 mM.EDTA) supplemented with protease inhibitors. The cell lysate was briefly vortexed, incubated on ice for 10 min and then centrifuged at 12,000 rpm to remove cell debris. Following centrifugation, the lysate supernatant was removed to a fresh eppendorf tube. Protein concentrations were assayed using the BCA Protein Assay (Pierce) according to the manufacturer's instructions. The absorbance of each sample at 620 nm was assayed using a microplate reader. A standard BSA curve was plotted for each experiment and the protein concentration of each sample calculated. To each sample an equal volume of 5× Western sample buffer and 10% of the final volume of β-mercaptoethanol (Sigma) was added. The samples were denatured at 95° C. for 5 minutes and placed on ice prior to loading onto SDS polyacrylamide gel (SDS PAGE). […] Protein bands were detected by exposure to autoradiograph which was subsequently developed. […]

HCT 116 +/+ = assay: Confocal microscopy of AREG expression in HCT116 after CPT-11; assay type: cell-based, human; conditions: 24 h and 48 h, compared to untreated controls

CCc1c2c(nc3ccc(OC(=O)N4CCC(N5CCCCC5)CC4)cc13)-c1cc3c(c(=O)n1C2)COC(=O)[C@]3(O)CC [CPT-11, irinotecan]
AREG RNA expression (RT-PCR) (RKO +/+ [1]): upregulation
AREG mRNA expression (RT-PCR) (HCT116): up-regulation
AREG RNA expression (RT-PCR, 35 cycles) (H460 lung cancer cells): enhanced expression of AREG
AREG mRNA expression (RT-PCR) [2]: up-regulation
AREG protein expression (western blot) (RKO +/+ [3]): Enhanced AREG expression
AREG expression levels (confocal microscopy) (HCT 116 +/+): increasing levels of expression at each time point
